Test results published in PubChem BioAssay (NCI).
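Briefly, cells in 96-well plates were exposed to five compound concentrations for 48 h, and endpoints were estimated by linear interpolation. GI50: concentration for 50% inhibition of growth. Definition used: TGI = concentration required for complete inhibition of growth.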

What was measured:
Experiment in all cases: NCI anticancer screen, dose series, 48 h
NCI-H226 lung = tested on: NCI-H226 lung
IGROV1 ovarian = tested on: IGROV1 ovarian
HOP-92 NSCLC = tested on: HOP-92 NSCLC
CAKI-1 renal = tested on: CAKI-1 renal
UACC-62 melanoma = tested on: UACC-62 melanoma
MDA-MB-435 = tested on: MDA-MB-435
NCI-H460 lung = tested on: NCI-H460 lung
SK-MEL-5 melanoma = tested on: SK-MEL-5 melanoma
LOX IMVI melanoma = tested on: LOX IMVI melanoma
OVCAR-3 ovarian = tested on: OVCAR-3 ovarian

SMILES | TGI (NCI-H226 lung) [µM] | TGI (IGROV1 ovarian) [µM] | TGI (HOP-92 NSCLC) [µM] | TGI (CAKI-1 renal) [µM] | TGI (UACC-62 melanoma) [µM] | TGI (MDA-MB-435) [µM] | TGI (NCI-H460 lung) [µM] | TGI (SK-MEL-5 melanoma) [µM] | TGI (LOX IMVI melanoma) [µM] | TGI (OVCAR-3 ovarian) [µM] | GI50 (NCI-H226 lung) [µM] | GI50 (IGROV1 ovarian) [µM] | GI50 (HOP-92 NSCLC) [µM] | GI50 (CAKI-1 renal) [µM] | GI50 (UACC-62 melanoma) [µM] | GI50 (MDA-MB-435) [µM] | GI50 (NCI-H460 lung) [µM] | GI50 (SK-MEL-5 melanoma) [µM] | GI50 (LOX IMVI melanoma) [µM] | GI50 (OVCAR-3 ovarian) [µM]
CCC1(O)C(=O)OCc2c1cc1n(c2=O)Cc2cc3c(N)cccc3nc2-1 (stereo not drawn) | 0.0597 | 6.23 | 0.931 | 0.272 | 0.0345 | 2.88 | 1.13 | 0.192 | 0.23 | 3.02 | – | – | – | – | – | – | – | – | – | –
COc1ccc(-c2nc(-c3nc4ccc(C)cc4[nH]3)c3ccccn23)cc1 | > 100 | 6.12 | 4.36 | > 100 | 5.66 | 8.46 | 6.11 | 2.72 | 7.73 | 10.2 | 3.88 | 2.18 | 0.416 | 2.83 | 2.14 | 2.3 | 2.28 | 1.39 | 3.03 | 2.99
C[C@]12CC[C@@H]3c4ccc(O)cc4C[C@@H](CCCCCCCCCS(=O)CCCC(F)(F)C(F)(F)F)[C@H]3[C@@H]1CC[C@@H]2O (stereo partly drawn) | > 100 | > 100 | > 100 | > 100 | > 100 | > 100 | > 100 | > 100 | > 100 | > 100 | > 100 | > 100 | > 100 | > 100 | > 100 | > 100 | > 100 | > 100 | > 100 | > 100
COc1ccc(-n2cc(-c3cc(OC)c(OC)c(OC)c3)[nH]c2=S)cc1OC | > 100 | > 100 | > 100 | > 100 | > 100 | > 100 | > 100 | > 100 | > 100 | > 100 | > 100 | > 100 | > 100 | > 100 | > 100 | > 100 | > 100 | > 100 | > 100 | > 100
COc1cc(Cn2c(-c3ccccc3)cc3c2-c2oncc2CC3)cc(OC)c1OC | > 100 | > 100 | > 100 | > 100 | 77.5 | 0.905 | > 100 | 16.8 | > 100 | 1.65 | 3.76 | 2.64 | 12.7 | 0.566 | 0.449 | 0.248 | 0.452 | 0.882 | 0.831 | 0.372
N#C/C(C(=S)Nc1ccccc1)=C1/NN=C2c3ccccc3C(=O)NN21 | > 100 | > 100 | 88.7 | > 100 | > 100 | 24.3 | 73.2 | 41.1 | 52.8 | 52.7 | 49.6 | 35.6 | 29.2 | 34.7 | 31.5 | 7.8 | 26.3 | 17 | 19.9 | 21.2
O=C(O)C1C(C(=O)O)C(C(=O)O)C1C(=O)O (stereo not drawn) | > 100 | > 100 | > 100 | > 100 | > 100 | > 100 | > 100 | > 100 | > 100 | > 100 | – | – | – | – | – | – | – | – | – | –
COc1cc2c3c(n(CCCBr)c(=O)c2cc1OC)-c1ccc(NC(C)=O)cc1C3=O | 57.3 | > 100 | > 100 | 7.21 | 15.7 | 78.3 | 7.31 | 13.7 | 15 | 24.9 | 5.17 | 10.8 | 73.4 | 1.09 | 2.1 | 13.9 | 0.506 | 2.45 | 2.1 | 4.37
COc1ccc(/C(=N/Nc2ccc([N+](=O)[O-])cc2)Sc2cc(Cl)c(C)cc2S(N)(=O)=O)cc1 | 9.63 | > 93.2 | 8.01 | 9.47 | 8.54 | 13.3 | 24.2 | 7.43 | 10.4 | 7.4 | 3.52 | 9.65 | 2.47 | 4.44 | 3.02 | 4.67 | 5.55 | 0.706 | 3.68 | 2.52
CC12CCCC(CC(=O)c3[nH]c4ccccc4c31)C2 (stereo not drawn) | 33.3 | > 100 | 36.7 | > 78.8 | > 60.3 | 0.949 | 19.7 | 15 | 20.9 | 2.61 | 4.23 | 0.793 | 2.56 | 0.535 | 0.491 | 0.255 | 1.58 | 0.669 | 0.615 | 0.384
CN1C(NC(=O)c2ccc(Cl)nc2)=NS(=O)(=O)c2cc(Cl)ccc21 | > 100 | > 100 | > 100 | > 100 | > 100 | > 100 | > 100 | > 100 | > 100 | > 100 | > 100 | > 100 | > 100 | > 100 | > 100 | > 100 | > 100 | > 100 | > 100 | > 100
C[C@]12CC[C@@H]3c4ccc(O)cc4CC[C@H]3[C@@H]1CC[C@@H]2NS(=O)(=O)c1ccc(C(F)(F)F)cc1 | 3.2 | 6.23 | 3.28 | 8.06 | 3.55 | 5 | 4.11 | 3.07 | 3.06 | – | 1.68 | 2.45 | 1.51 | 2.78 | 1.83 | 2.12 | 1.98 | 1.7 | 1.68 | –
